Laboratory results from patent US7169756B2, “Streptogramin antibiotics” (priority 2005, dated 2007).
Values after ≈ are worked out from the molar mass of the structure shown. Read-outs that look alike come from different tables or passages of the source. Numbered stars: 1 amine (or outer) side, 2 acyl side, 3 side chain; on linkers, the order of the positions; unused ones are H or OH. Bridge positions count the residues as written; N and C are the ends. Square brackets hold non-standard residues; d marks the D form. Peptide text beside a SMILES is read from it. * marks the point of attachment. X1 = O=C1C[C@@H](C(=O)[*:2])N([*:1])C[C@H]1CS[C@@H]1CN2CCC1CC2; NMePhe(4-NMe2) = CN[C@@H](Cc1ccc(N(C)C)cc1)C(=O)O; Picolinoyl(3-OH) = O=C(c1ncccc1O)*; Phg = N[C@H](C(=O)O)c1ccccc1; Orn = NCCC[C@H](N)C(=O)O; dAbu = CC[C@@H](N)C(=O)O; Dap = NC[C@H](N)C(=O)O

Legend:
E. coli BAS901 [1] = test: bacteriostatic or bactericidal action; type: cell-based, Escherichia coli
Bacillus subtilis = test: growth inhibition, text summary of disk assay; type: cell-based; settings: strain not given
Procedure: (§1) The antibiotic activity of the peptides synthesized in this study was initially assayed using a disk assay where samples were applied to sterile paper disks placed on a fresh lawn of bacterial culture on appropriate agar plates as required by the organism. These were then incubated for 16 hr at 37° C. and the zone of growth inhibition surrounding the disks recorded. For quantitative assessment of antibiotic activity in liquid culture, the minimal inhibitory concentration (MIC) of peptides was determined by serial dilution studies. The peptides and standard antibiotics were dissolved in DMSO and the final concentration of DMSO in the liquid cultures was 5%. Both S. aureus RN4220 and E. coli BAS901 were able to grow efficiently at this level of DMSO.
(§2) Crude material from the initial synthesis reactions was used to test the potential of the analogues as antibiotics in susceptibility assays where a solution of the compound was placed on a paper disk on a lawn of bacteria. As described above, E. coli BAS901 is deficient in the Imp/OstA protein, an outer membrane protein, involved in cell envelope biogenesis (1, 5). […] The antibiotic activity of the peptides synthesized in this study was initially assayed using a disk assay where samples were applied to sterile paper disks placed on a fresh lawn of bacterial culture on Tryptic Soya, Luria Broth, or Brain Heart Infusion Agar plates. These were then incubated for 16 hrs at 37° C. and the zone of growth inhibition surrounding the disks recorded.

Streptococcus pneumoniae = test: growth inhibition, text summary of disk assay; type: cell-based; settings: strain not given
Procedure: as §1, §2

[2] = test system: Staphylococcus epidermidis; test: growth inhibition, text summary of disk assay; type: cell-based; settings: strain not given
Procedure: as §1, §2

Enterococcus faecalis = test: growth inhibition, text summary of disk assay; type: cell-based; settings: strain not given
Procedure: as §1, §2

Vgb = biological target: T1, Vgb (Staphylococcus aureus, UniProt P17978); test: inhibition of the streptogramin inactivating enzyme Vgb; type: biochemical; settings: concentrations of up to 0.4 mM
T1 construct: made in house
Procedure: On-resin chemical cyclization of 5 provided sufficient material for more extensive analysis of antibacterial activity and investigation of its ability to inhibit the streptogramin inactivating enzyme Vgb. This enzyme however was insensitive to 5 in concentrations of up to 0.4 mM. […] Regardless of the actual mechanism, the design of these streptogramin-tyrocidine chimeras of the present invention result in antibiotics that are not recognized by a streptogramin inactivation enzyme.

[3] = test system: Enterococcus faecalis (ATCC 29212); test: microbe, parasite or virus in culture; type: cell-based
Procedure: as §1

[4] = test system: Staphylococcus aureus (ATCC 29213); test: microbe, parasite or virus in culture; type: cell-based
Procedure: as §1

[5] = test system: Staphylococcus saprophyticus (ATCC 15305); test: microbe, parasite or virus in culture; type: cell-based
Procedure: as §1

[6] = test system: Streptococcus pneumoniae (ATCC 49619); test: microbe, parasite or virus in culture; type: cell-based
Procedure: as §1

[7] = test system: Staphylococcus aureus RN4220/pJIM2246ΩermB; test: microbe, parasite or virus in culture; type: cell-based
Procedure: as §1

B. subtilis 1A752 [8] = test: checker-board synergy test with dalfopristin; type: cell-based, Bacillus subtilis; settings: microtiter plates, checker-board technique
From the text: (§3) Quinupristin and dalfopristin act in a synergistic manner.

B. subtilis 1A752 [9] = test: bacteriostatic or bactericidal action; type: cell-based, Bacillus subtilis
E. coli BAS901 [10] = test: checker-board synergy test with dalfopristin; type: cell-based, Escherichia coli; settings: microtiter plates, checker-board technique
From the text: as §3

[11] = test system: Staphylococcus aureus (ATCC 29213); test: disk assay, zone of growth inhibition; type: cell-based
Procedure: as §1, §2

[12] = test system: Staphylococcus aureus (ATCC 43300); test: disk assay, zone of growth inhibition; type: cell-based; settings: methicillin resistant, oxacillin resistant
Procedure: as §1, §2

[13] = test system: Salmonella enterica (ATCC 14028); test: disk assay, zone of growth inhibition; type: cell-based; settings: serovar Typhimurium
Procedure: as §1, §2

[14] = test system: Staphylococcus aureus (ATCC 49476); test: disk assay, zone of growth inhibition; type: cell-based
Procedure: as §1, §2

[15] = test system: Streptococcus pneumoniae (ATCC 49619); test: disk assay, zone of growth inhibition; type: cell-based
Procedure: as §1, §2

[16] = test system: Staphylococcus aureus (ATCC 25923); test: disk assay, zone of growth inhibition; type: cell-based
Procedure: as §1, §2

[17] = test system: Enterococcus faecalis (ATCC 51299); test: disk assay, zone of growth inhibition; type: cell-based; settings: vancomycin, aminoglycoside resistant
Procedure: as §1, §2

B. subtilis W23 = test: disk assay, zone of growth inhibition; type: cell-based, Bacillus subtilis
Procedure: as §1
(§4) Crude material from the initial synthesis reactions was used to test the potential of the analogues as antibiotics in susceptibility assays where a solution of the compound was placed on a paper disk on a lawn of bacteria. As described above, E. coli BAS901 is deficient in the Imp/OstA protein, an outer membrane protein, involved in cell envelope biogenesis (1, 5). […] These were then incubated for 16 hrs at 37° C. and the zone of growth inhibition surrounding the disks recorded.

B. subtilis L5706 = test: disk assay, zone of growth inhibition; type: cell-based, Bacillus subtilis
Procedure: as §1, §4

Escherichia coli BAS901 = test: disk assay, zone of growth inhibition; type: cell-based; settings: Escherichia coli BAS901, hyperpermeable, 16 hr at 37° C.
Procedure: Partially purified material from these reactions was used to test their antibiotic properties in disk diffusion susceptibility assays using E. coli BAS901.
as §1, §4

Micrococcus luteus = test: disk assay, zone of growth inhibition; type: cell-based
Procedure: as §1, §2

[18] = test system: Enterococcus faecium CP54-32; test: disk assay, zone of growth inhibition; type: cell-based
Procedure: as §1, §2

Bacillus subtilis 1A752 = test: disk assay, zone of growth inhibition; type: cell-based
Procedure: as §1, §2

[19] = test system: S. saprophyticus (ATCC 15305); test: disk assay, zone of growth inhibition; type: cell-based, Staphylococcus saprophyticus
Procedure: as §1, §4

E. coli BAS901/pUC19 = test: disk assay, zone of growth inhibition; type: cell-based, Escherichia coli
From the text: A hyperpermeable E. coli strain, E. coli BAS901, harboring a plasmid constitutively expressing Vgb was created for in vivo studies. The plasmids pVGB, described previously in [14], and […] were digested with Xbal and BamHI, to yield an approximately 1 kb fragment containing a ribosomal binding site upstream of vgb, and linearized pUC19 backbone, respectively. The vgb fragment was then subcloned into the linearized pUC19 backbone downstream of pLac yielding pUC19-VGB. Both pUC19-VGB and pUC19 were transformed E. coli BAS901.
as §1, §2

T1 sequence (P17978 whole entry): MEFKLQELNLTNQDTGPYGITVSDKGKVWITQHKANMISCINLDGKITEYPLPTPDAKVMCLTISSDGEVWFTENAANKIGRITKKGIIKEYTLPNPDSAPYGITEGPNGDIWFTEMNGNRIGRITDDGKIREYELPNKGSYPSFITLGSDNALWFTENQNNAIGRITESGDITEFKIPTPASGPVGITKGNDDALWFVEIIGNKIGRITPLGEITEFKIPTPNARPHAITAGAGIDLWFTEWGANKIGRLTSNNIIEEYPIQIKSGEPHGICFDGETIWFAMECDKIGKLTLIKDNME

`CC(C)C[C@@H]1NC(=O)[C@H](CCCN)NC(=O)[C@H]([C@@H](C)O)NC(=O)[C@@H](NC(=O)c2ncccc2O)CNC(=O)[C@H](Cc2ccccc2)NC(=O)[C@@H]2CCCN2C(=O)[C@@H](Cc2ccccc2)NC1=O` [Compound 5] ({Picolinoyl(3-OH)}-[Dap]T[Orn]L[dF]PF; lactam 1-C) was tested, and the bacteriostatic or bactericidal (E. coli BAS901 [1]) was “bacteriostatic and not bactericidal”, the growth inhibition activity (Bacillus subtilis) was “active” and the growth inhibition activity (Streptococcus pneumoniae) was “active”. The growth inhibition activity [2] was “active”, the growth inhibition activity (Enterococcus faecalis) was “active” and the “inhibition of Vgb” value (Vgb) was “insensitive”. It also gave an MIC ([3]; ATCC 29212, 16 h) of 128 mg/L (≈ 138 µM), an MIC [4] of 256 mg/L (≈ 276 µM) and an MIC ([5]; ATCC 15305, 16 h) of 64 mg/L (≈ 69 µM). For the same compound, the MIC ([6]; ATCC 49619, 16 h) was 128 mg/L (≈ 138 µM), the MIC ([7]; Staphylococcus aureus RN4220/pJIM2246ΩermB) was 256 mg/L (≈ 276 µM) and the synergy with dalfopristin (B. subtilis 1A752 [8]) was “additive, not synergistic”. The bacteriostatic or bactericidal (B. subtilis 1A752 [9]) was “bacteriostatic and not bactericidal”, the synergy with dalfopristin (E. coli BAS901 [10]) was “additive, not synergistic” and the “Zone of Inhibition” value [11] was “n.i”. The “Zone of Inhibition” value [12] was “n.i”, the “Zone of Inhibition” value [13] was “n.i” and the “Zone of Inhibition” value [14] was “n.i”. For the same compound, the “Zone of Inhibition” value [15] was “n.i”, the “Zone of Inhibition” value [16] was “n.i” and the “Zone of Inhibition” value [17] was “n.i”.
For `CC[C@H]1NC(=O)[C@@H](NC(=O)c2ncccc2O)[C@@H](C)OC(=O)[C@H](c2ccccc2)NC(=O)[C@@H]2CC(=O)[C@H](CS[C@@H]3CN4CCC3CC4)CN2C(=O)[C@H](Cc2ccc(N(C)C)cc2)N(C)C(=O)[C@@H]2CCCN2C1=O` [Quinupristin, quinupristin, reference compound] ({Picolinoyl(3-OH)}-T[dAbu]P[NMePhe(4-NMe2)][X1][Phg]; ester 1-C), the “Zone of Inhibition” value (B. subtilis W23) was 2.1 cm, the “Zone of Inhibition” value (B. subtilis L5706) was 2.1 cm and the MIC ([3]; ATCC29212, Enterococcus faecalis (ATCC 29212), read-out: MIC) was 8 mg/L (≈ 7.83 µM). For the same compound, the MIC ([4]; ATCC29213, read-out: MIC) was 4 mg/L (≈ 3.91 µM), the MIC ([5]; ATCC15305, Staphylococcus saprophyticus (ATCC 15305), read-out: MIC) was 8 mg/L (≈ 7.83 µM) and the MIC ([6]; ATCC49619, Streptococcus pneumoniae (ATCC 49619), read-out: MIC) was 0.5 mg/L (≈ 0.489 µM). The MIC ([7]; Staphylococcus aureus) was 8 mg/L (≈ 7.83 µM), the “Zone of Inhibition” value (Escherichia coli BAS901) was 2.2 cm and the “Zone of Inhibition” value (Micrococcus luteus) was 2.7 cm. For the same compound, the “Zone of Inhibition” value [18] was 1.8 cm, the “Zone of Inhibition” value [11] was 2.3 cm and the “Zone of Inhibition” value (Bacillus subtilis 1A752) was 1.8 cm. The “Zone of Inhibition” value [12] was “n.i”, the “Zone of Inhibition” value [13] was “n.i” and the “Zone of Inhibition” value [14] was 2.6 cm. The “Zone of Inhibition” value [15] was 2.0 cm, the “Zone of Inhibition” value [16] was 2.2 cm and the “Zone of Inhibition” value [17] was “n.i”. For the same compound, the “Zone of Inhibition” value [19] was 2.3 cm, the “Zone of Inhibition” value (E. coli BAS901/pUC19) was 2.2 cm and the “Zone of Inhibition” value (E. coli BAS901/pUC19; listed as quinupristin) was “exhibit a zone of inhibition”.
